From patent US12583825B2, “Benzo[h]quinazolin-4-amine and thieno[3,2-h]quinazolin-4-amine derivatives for the treatment of cancer” (Redona Therapeutics, Inc., priority 2020, dated 2026)

What was measured:
MDA-MB-231 cells = assay: MDA-MB-231 proliferation assay; type: cell-based; details: Homo sapiens, 72 hours, YO-PRO-1 readout
Experimental: MDA-MB-231 Proliferation Assay
MDA-MB-231 cells were cultivated in DMEM High Glucose (4.5 g/L) with L-Glutamine (BioConcept, cat. no. 1-26F03-I) supplemented with 1% Na-pyruvate (Sigma, cat. no. S8636), 1% Penicillin-Streptomycin (BioConcept, cat. no. 4-01F00H), and 10% FBS (Sigma, cat. no. F9665) using standard techniques. Cells were seeded in black, clear-bottom 384 well plates for tissue culture (Greiner Bio-One, cat. no. 781091) at a density of 750 cells per well in 20 μL medium and the plates were incubated overnight at 37° C. with 5% CO2 prior to treatment. Experimental compounds were serially diluted in DMSO to 200× the desired final concentrations. The solutions were then diluted 1:40 with culture medium and 5 μL aliquots were mixed into the wells containing the cells. The final concentration of DMSO was 0.5%. The plates were incubated for 72 hours and cell numbers were then measured using YO-PRO™-1 Iodide (ThermoFisher Scientific, cat. no. Y3603) essentially as recommended by the manufacturer. […] The plates were incubated at room temperature in the dark for 30 minutes. Fluorescence intensity signals were then measured on a Synergy 4 reader (BioTek) using 485/20 nm and 530/25 nm filters for the excitation and emission, respectively. Relative proliferation values were calculated by normalizing the raw data using DMSO-treated cells (100% proliferation) and the signals obtained from cells that were evaluated at the time of compound addition (0% proliferation). The concentration-response data were fitted to a sigmoidal 4-parameter logistic model with the maximum constrained to 100%.

recombinant human CLK3 = molecular target: T1, recombinant human CLK3 (Homo sapiens, UniProt P49761); assay: CLK3 kinase assay (LANCE Ultra); type: biochemical; details: 0.5 nM CLK3, 300 μM ATP, 3 hours at 30° C.
T1 construct: purchased Thermo Fisher Scientific PV3826
Experimental: CLK3 kinase activity was measured using the LANCE® Ultra technology (PerkinElmer) essentially as recommended by the supplier. Briefly, 2.5 μL of test sample at 4× the desired final concentration in 4% DMSO were dispensed into white, low volume, round bottom, 384 well plates (Corning, cat. no. 4512). 5 μL of a mixture containing recombinant human CLK3 (Thermo Fisher Scientific, cat. no. PV3826) and the labeled peptide substrate ULight™-CREBtide (PerkinElmer, cat. no. TRF0107) prepared in 1.33× kinase buffer (Thermo Fisher Scientific, cat. no. PV3189) were then added. Finally, the reactions were started by adding 2.5 μL of a 4× solution of ATP in kinase buffer. The plates were sealed with adhesive foils and incubated for 3 hours at 30° C. in the dark. The final concentrations of CLK3, ULight™—CREBtide, and ATP were 0.5 nM, 50 nM, and 300 μM, respectively. 5 μL of 40 mM EDTA were then added to terminate the reactions. The Eu-anti-phospho-CREB antibody (PerkinElmer, cat. no. TRF0200) diluted in LANCE® detection buffer (PerkinElmer, cat. no. CR97) was then added to a final concentration of 2 nM and the reactions were incubated for 1 hour at room temperature in the dark. The signals were measured using a Synergy 4 reader (BioTek) with a 320/80 nm filter for the excitation and 620/10 nm and 665/8 nm filters for the donor and acceptor emission, respectively. […] IC50 values were calculated by fitting the concentration-response data to a sigmoidal 4-parameter logistic model.

T1 sequence (P49761 whole entry): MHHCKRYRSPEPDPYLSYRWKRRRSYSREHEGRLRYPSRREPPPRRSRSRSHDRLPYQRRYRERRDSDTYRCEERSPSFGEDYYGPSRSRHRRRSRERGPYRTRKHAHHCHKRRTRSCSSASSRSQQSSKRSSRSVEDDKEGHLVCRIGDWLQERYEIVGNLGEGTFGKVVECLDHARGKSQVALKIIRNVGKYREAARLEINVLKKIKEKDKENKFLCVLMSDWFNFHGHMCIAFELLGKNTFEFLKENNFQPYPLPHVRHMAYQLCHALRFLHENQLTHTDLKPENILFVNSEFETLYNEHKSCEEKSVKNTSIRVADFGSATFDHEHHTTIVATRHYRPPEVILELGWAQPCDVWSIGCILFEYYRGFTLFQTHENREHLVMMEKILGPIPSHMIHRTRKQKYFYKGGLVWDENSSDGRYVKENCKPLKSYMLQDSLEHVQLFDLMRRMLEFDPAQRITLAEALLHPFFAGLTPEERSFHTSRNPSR

Row | GI50 (MDA-MB-231 cells) [µM] | IC50 (recombinant human CLK3) [µM] | Structure (SMILES)
1 | 0.742 | 0.0166 | CC1(C)/C(=N/O)c2cc(O[C@H]3CC[C@H](N)CC3)ccc2-c2ncnc(N)c21 [Example 2, (6Z)-4-amino-8-(trans-4-aminocyclohexoxy)-5,5-dimethyl-benzo[h]quinazolin-6-one oxime]
2 | 1.96 | 0.2 | CC1(C)/C(=N/OCc2ccccc2)c2cc(O[C@H]3CC[C@H](N)CC3)ccc2-c2ncnc(N)c21 [Example 3, (6Z)-8-(trans-4-aminocyclohexoxy)-6-benzyloxyimino-5,5-dimethyl-benzo[h]quinazolin-4-amine]
3 |  | 0.227 | COc1ccc2c(c1)/C(=N\OCC(=O)O)C(C)(C)c1c(N)ncnc1-2 [Example 5, 2-[(Z)-(4-amino-8-methoxy-5,5-dimethyl-benzo[h]quinazolin-6-ylidene)amino]oxyacetic acid]
4 |  | 0.115 | COc1ccc2c(c1)/C(=N\OCC(N)=O)C(C)(C)c1c(N)ncnc1-2 [Example 7, 2-[(Z)-(4-amino-8-methoxy-5,5-dimethyl-benzo[h]quinazolin-6-ylidene)amino]oxyacetamide]
5 | > 2 | 0.0732 | COc1ccc2c(c1)/C(=N\OCC(=O)NCCN)C(C)(C)c1c(N)ncnc1-2 [Example 8, N-(2-aminoethyl)-2-[(Z)-(4-amino-8-methoxy-5,5-dimethyl-benzo[h]quinazolin-6-ylidene)amino]oxy-acetamide]
6 | 1.05 | 0.0902 | COc1ccc2c(c1)/C(=N\O[C@H]1CC[C@@H](N)CC1)C(C)(C)c1c(N)ncnc1-2 [Example 9, (6Z)-6-(cis-4-aminocyclohexoxy)imino-8-methoxy-5,5-dimethyl-benzo[h]quinazolin-4-amine]
7 | > 2 | 0.0758 | COc1ccc2c(c1)/C(=N\O[C@H]1CC[C@H](N)CC1)C(C)(C)c1c(N)ncnc1-2 [Example 10, (6Z)-6-(trans-4-aminocyclohexoxy)imino-8-methoxy-5,5-dimethyl-benzo[h]quinazolin-4-amine]
8 |  | 0.437 | COc1ccc2c(c1)/C(=N\OC[C@H]1CC[C@H](N)CC1)C(C)(C)c1c(N)ncnc1-2 [Example 11, (6Z)-6-[(trans-4-aminocyclohexyl)methoxyimino]-8-methoxy-5,5-dimethyl-benzo[h]quinazolin-4-amine]
9 | > 2 | 0.129 | COc1ccc2c(c1)/C(=N\OC[C@H]1CNC(=O)O1)C(C)(C)c1c(N)ncnc1-2 [Example 12, (5R)-5-[[(Z)-(4-amino-8-methoxy-5,5-dimethyl-benzo[h]quinazolin-6-ylidene)amino]oxymethyl]oxazolidin-2-one]
10 | 0.597 | 0.0239 | COC(=O)CCO/N=C1\c2cc(O[C@H]3CC[C@H](N)CC3)ccc2-c2ncnc(N)c2C1(C)C [Example 14, methyl 3-[(Z)-[4-amino-8-(trans-4-aminocyclohexoxy)-5,5-dimethyl-benzo[h]quinazolin-6-ylidene]amino]oxypropanoate]
11 | 0.714 | 0.0298 | CC1(C)/C(=N/OCCCO)c2cc(O[C@H]3CC[C@H](N)CC3)ccc2-c2ncnc(N)c21 [Example 15, 3-[(Z)-[4-amino-8-(trans-4-aminocyclohexoxy)-5,5-dimethyl-benzo[h]quinazolin-6-ylidene]amino]oxypropan-1-ol]
12 | > 2 | 0.265 | CC1(C)/C(=N/OCCN2CCCCC2)c2cc(O[C@H]3CC[C@H](N)CC3)ccc2-c2ncnc(N)c21 [Example 16, (6Z)-8-(trans-4-aminocyclohexoxy)-5,5-dimethyl-6-[2-(1-piperidyl)ethoxyimino]benzo[h]quinazolin-4-amine]
13 |  | 0.41 | CCN(CC)CCCO/N=C1\c2cc(O[C@H]3CC[C@H](N)CC3)ccc2-c2ncnc(N)c2C1(C)C [Example 17, (6Z)-8-(trans-4-aminocyclohexoxy)-6-[3-(diethylamino)propoxyimino]-5,5-dimethyl-benzo[h]quinazolin-4-amine]
14 | > 2 | 0.237 | CC1(C)/C(=N/OCc2ccc(C#N)cc2)c2cc(O[C@H]3CC[C@H](N)CC3)ccc2-c2ncnc(N)c21 [Example 20, 4-[[(Z)-[4-amino-8-(trans-4-aminocyclohexoxy)-5,5-dimethyl-benzo[h]quinazolin-6-ylidene]amino]oxymethyl]benzonitrile]
15 | 0.743 |  | CCO/N=C1\c2cc(O[C@H]3CC[C@H](N)CC3)ccc2-c2ncnc(N)c2C1(C)C [Example 24, (6Z)-8-(trans-4-aminocyclohexoxy)-6-ethoxyimino-5,5-dimethyl-benzo[h]quinazolin-4-amine]
16 | > 2 |  | CO/N=C1\c2cc(O[C@H]3CC[C@H](N)CC3)cc(Cl)c2-c2ncnc(N)c2C1(C)C [Example 39, (6Z)-8-(trans-4-aminocyclohexoxy)-10-chloro-6-methoxyimino-5,5-dimethyl-benzo[h]quinazolin-4-amine]
17 | > 2 |  | CO/N=C1\c2cc(OC)c(N)cc2-c2ncnc(N)c2C1(C)C [Example 42, (6Z)-8-methoxy-6-methoxyimino-5,5-dimethyl-benzo[h]quinazoline-4,9-diamine]
18 |  | 0.0019 | CO/N=C1\c2cc(O[C@H]3CC[C@@H](N)CC3)ccc2-c2ncnc(N)c2C1(C)C [Example 54, (6Z)-8-(cis-4-aminocyclohexoxy)-6-methoxyimino-5,5-dimethyl-benzo[h]quinazolin-4-amine]
19 |  | 0.372 | COc1ccc2c(c1)/C(=N\OC[C@@H]1CCNC1)C(C)(C)c1c(N)ncnc1-2 [Example 62, (6Z)-8-methoxy-5,5-dimethyl-6-[[(3R)-pyrrolidin-3-yl]methoxyimino]benzo[h]quinazolin-4-amine]
20 |  | 0.313 | COc1ccc2c(c1)/C(=N/OC[C@@H]1CCNC1)C(C)(C)c1c(N)ncnc1-2 [Example 63, (6E)-8-methoxy-5,5-dimethyl-6-[[(3R)-pyrrolidin-3-yl]methoxyimino]benzo[h]quinazolin-4-amine]
21 | > 2 |  | C=CCO/N=C1\c2cc(O[C@H]3CC[C@H](N)CC3)ccc2-c2ncnc(N)c2C1(C)C [Example 64, (6Z)-6-allyloxyimino-8-(trans-4-aminocyclohexoxy)-5,5-dimethyl-benzo[h]quinazolin-4-amine]
22 | > 2 |  | CC(C)O/N=C1\c2cc(O[C@H]3CC[C@H](N)CC3)ccc2-c2ncnc(N)c2C1(C)C [Example 67, (6Z)-8-(trans-4-aminocyclohexoxy)-6-isopropoxyimino-5,5-dimethyl-benzo[h]quinazolin-4-amine]
23 |  | 0.173 | COc1ccc2c(c1)/C(=N\OC[C@H]1CCN(C)C1)C(C)(C)c1c(N)ncnc1-2 [Example 71, (6Z)-8-methoxy-5,5-dimethyl-6-[[(3S)-1-methylpyrrolidin-3-yl]methoxyimino]benzo[h]quinazolin-4-amine]
24 |  | 0.0986 | CO/N=C1\c2cc(Br)ccc2-c2ncnc(N)c2C1(C)C [Example 89, (6Z)-8-bromo-6-methoxyimino-5,5-dimethyl-benzo[h]quinazolin-4-amine]
25 | 0.082 |  | CC1(C)/C(=N/OCCOC(F)(F)F)c2cc(O[C@H]3CC[C@@H](N)CC3)ccc2-c2ncnc(N)c21 [Example 105, (6Z)-8-(cis-4-aminocyclohexoxy)-5,5-dimethyl-6-[2-(trifluoromethoxy)ethoxyimino]benzo[h]quinazoline-4-amine]
26 | 0.319 |  | CC1(C)/C(=N/OCCOc2ccccc2)c2cc(O[C@H]3CC[C@@H](N)CC3)ccc2-c2ncnc(N)c21 [Example 107, (6Z)-8-(cis-4-aminocyclohexoxy)-5,5-dimethyl-6-(2-phenoxyethoxyimino)benzo[h]quinazoline-4-amine]
27 | 0.942 |  | CC1(C)/C(=N/OCCCc2cccnc2)c2cc(O[C@H]3CC[C@@H](N)CC3)ccc2-c2ncnc(N)c21 [Example 108, (6Z)-8-(cis-4-aminocyclohexoxy)-5,5-dimethyl-6-[3-(3-pyridyl)propoxyimino]benzo[h]quinazoline-4-amine]

Row | Structure (SMILES) | GI50 (MDA-MB-231 cells) [µM] | IC50 (recombinant human CLK3) [µM]
28 | CO/N=C1\c2cc(N(C)C3CCNCC3)ccc2-c2ncnc(N)c2C1(C)C [Example 69, (6Z)-6-methoxyimino-N8,5,5-trimethyl-N8-(4-piperidyl)benzo[h]quinazoline-4,8-diamine] | > 2 | 
